Data published in patent publication EP2975033A1, “Improved cysteine-protease inhibitors” (Universitat Jaume I, priority 2014, dated 2016).
Converted amounts (≈) assume the structure as drawn. Read-outs that look alike come from different tables or passages of the source.

What was measured:
[1] = molecular target: cruzain (CR) (Trypanosoma cruzi, UniProt P25779); experiment: In vitro inhibition of cruzain, fluorescence of Z-Phe-Arg-AMC breakdown; type: biochemical
Method: (§1) Enzyme assays used to identify inhibitors of the target cysteine proteases. The effect is detected measuring fluorescence increase due to hydrolysis of fluorogenic substrates by the target enzymes in absence and presence of potential inhibitors.
(§2) In vitro inhibition of cysteine-proteases cruzain (CR) (Trypanosoma cruzi (T. cruzi)), rhodesain (RD) (T. brucei), cathepsin B (CB), falcipain (FP2) (Plasmodium falciparum) and cathepsin L (CL) was assessed by quantification of the resulting fluorescence emission of the proteolytic breakdown of synthetic compound Z-Phe-Arg-AMC (Bachem). The results of this determination are shown in tables 1 and 2 illustrated above.

[2] = molecular target: T1, Rhodesain (Trypanosoma brucei rhodesiense, UniProt Q95PM0); experiment: Protease assay, fluorogenic substrate Z-Phe-Arg-AMC: Rhodesain; type: biochemical; settings: for IC50: RD=Rhodesain, 25 °C, pH 5.5, 10µM substrate
T1 construct: made in house
From the text: (§3) 2.1.1. Protease Assays as shown in tables 1 and 2: Cathepsin L (human), Cathepsin B (human), Rhodesain (Trypanosoma brucei rhodesiense), Falcipain 2 (Plasmodium falciparum)
as §1
(§4) • a. Proteins (enzymes): • Cathepsin L (human liver) Calbiochem • Cathepsin B (human liver) Calbiochem • Rhodesain: recombinantly expressed according to ref.: Caffrey, C. R.; Hansell, E.; Lucas, K. D.; Brinen, L. S.; Hernandez, A. A.; Cheng, J.; Gwaltney, S. L., II; Roush, W. R.; Stierhof, Y. D.; Bogyo, M.; Steverding, D.; McKerrow, J. H. Active site mapping, biochemical properties and subcellular localization of rhodesain, the major cysteine protease of Trypanosoma • Falcipain 2: recombinantly expressed according to ref.: Pandey, K. C.; Wang, S. X.; Sijwali, P. S.; Lau, A. L.; McKerrow, J. H.; Rosenthal, P. J. The Plasmodium falciparum cysteine protease falcipain-2 captures its substrate, hemoglobin, via a unique motif. Proc. Natl. Acad. Sci. U.S.A. 2005, 102, 9138-9143. • b. Buffers: • Cathepsin B: 50 mM Tris-Puffer pH 6.5 mit 2 mM DTT, 5 mM EDTA, 200 mM NaCl, 0.005% Brij35 • Cathepsin L: 50 mM Tris-Puffer pH 6.5 mit 2 mM DTT, 5 mM EDTA, 200 mM NaCl, 0.005% Brij35 • Rhodesain: 50 mM Acetat-Puffer pH 5.5 mit 5 mM DTT, 5 mM EDTA, 200 mM NaCl, 0.005% Brij35 • Falcipain 2: 50 mM Acetat-Puffer pH 5.5 mit 5 mM DTT, 5 mM EDTA, 200 mM NaCl, 0.005% Brij35 • c. Substrates: • Cathepsin L: 6,25 µM Z-Phe-Arg-7-amino-4-methylcumarin, HCl von Bachem, Ex 380 nm, Em 460 nm • Cathepsin B: 100 µM Z-Phe-Arg-7-amino-4-methylcumarin, HCl von Bachem, Ex 380 nm, Em 460 nm • Rhodesain: 10µM Z-Phe-Arg-7-amino-4-methylcumarin, HCl von Bachem, Ex 380 nm, Em 460 nm • Falcipain 2: 25µM Z-Phe-Arg-7-amino-4-methylcumarin, HCl von Bachem, Ex 380 nm, Em 460 nm • Reference substance(s)/positive control(s): E64 • d. Solvent for inhibitors and substrates: DMSO 99,5% (GC) DC4540, Sigma • e. Measurement device: Tecan Fluorescence spectrophotometer infinite F200 Pro • f. Well plates: 96 well plates, Lia-Plate White, Greiner bio-one, flat bottom, high binding • g. Methodology: Substrates and inhibitor stock solutions are prepared in DMSO and diluted with the respective assay buffer (final DMSO concentration: […]). Enzyme stock solutions are diluted with assay buffer to yield a fluorescence increase of dF/min ≈ _20. Total volume: 200 µL (180 µL of assay buffer, 5 µL of enzyme solution, 10 µL of DMSO or inhibitor solution, 5 µL of substrate solution). Assays are started by the addition of substrate solution. Fluorescence increase is detected over a period of 10 - 30 min, depending on time dependent (30 min) or non-time dependent (10 min) inhibition. • h. Temp: 25 °C • i. DATA-[…] • Software: Grafit 5.013 • Ki values are calculated from IC50 values (obtained by the 4-parameter IC50 equation) using the Chen-Prusoff equation: Ki=IC50/(1 + [S]/Km)
as §2

[3] = molecular target: T2, Cathepsin L (human) (Homo sapiens, UniProt P07711); experiment: Protease assay, fluorogenic substrate Z-Phe-Arg-AMC: Cathepsin L; type: biochemical; settings: CL=CathepsinL; for IC50: read-out: CL(IC50), 25 °C, pH 6.5, 6,25 µM substrate
T2 construct: Cathepsin L (human liver) Calbiochem; purchased Calbiochem; host or cells: human liver (tissue-derived)
From the text: as §3, §1, §4, §2

[4] = molecular target: T3, Cathepsin B (human) (Homo sapiens, UniProt P07858); experiment: Protease assay, fluorogenic substrate Z-Phe-Arg-AMC: Cathepsin B; type: biochemical; settings: CB=CathepsinB; for IC50: 25 °C, pH 6.5, 100 µM substrate, read-out: CBIC50micM
T3 construct: Cathepsin B (human liver) Calbiochem; purchased Calbiochem; host or cells: human liver (tissue-derived)
From the text: as §3, §1, §4, §2

[5] = molecular target: T4, Falcipain 2 (Plasmodium falciparum, UniProt Q8I6U4); experiment: Protease assay, fluorogenic substrate Z-Phe-Arg-AMC: Falcipain 2; type: biochemical; settings: FP2=Falcipain2
T4 construct: made in house
From the text: as §3, §1, §4, §2

[6] = test system: P. falciparum NF54 strain; experiment: Activity against P. falciparum, 3H-hypoxanthine incorporation assay; type: cell-based; settings: Plasmodium falciparum, NF54
[7] = test system: L. donovani strain MHOM/ET/67/L82; experiment: Activity against L. donovani axenic amastigotes (Alamar Blue); type: cell-based; settings: Leishmania donovani
Method: (§5) For all the susceptibility assays with parasites and cells, each drug was tested in duplicate and each assay was repeated at least once. • a. Activity against Trypanosoma brucei rhodesiense STIB900. This stock was isolated in 1982 from a human patient in Tanzania and after several mouse passages cloned and adapted to axenic culture conditions (Baltz et al 1985) Minimum Essential Medium (50 µl) supplemented with 25 mM HEPES, 1g/l additional glucose, 1% MEM non-essential amino acids (100x), 0.2 mM 2-mercaptoethanol, 1 mM Na-pyruvate and 15% heat inactivated horse serum was added to each well of a 96-well microtiter plate. Serial drug dilutions of eleven 3-fold dilution steps covering a range from 100 to 0.002 µg/ml were prepared. Then 4x10^3 bloodstream forms of T. b. rhodesiense STIB 900 in 50 µl was added to each well and the plate incubated at 37 °C under a 5 % CO2 atmosphere for 70 h. 10 µl Alamar Blue (resazurin, 12.5 mg in 100 ml double-distilled water) was then added to each well and incubation continued for a further 2-4 h (Raz et al 1997). Then the plates were read with a Spectramax Gemini XS microplate fluorometer (Molecular Devices Cooperation, Sunnyvale, CA, USA) using an excitation wave length of 536 nm and an emission wave length of 588 nm. The IC50 values were calculated by linear regression (Huber 1993) from the sigmoidal dose inhibition curves using SoftmaxPro software (Molecular Devices Cooperation, Sunnyvale, CA, USA). Melarsoprol (Arsobal Sanofi-Aventis, received from WHO) is used as control. • b. Activity against T. cruzi. Rat skeletal myoblasts (L-6 cells) were seeded in 96-well microtitre plates at 2000 cells/well in 100 µL RPMI 1640 medium with 10% FBS and 2 mM I-glutamine. After 24 h the medium was removed and replaced by 100 µl per well containing 5000 trypomastigote forms of T. cruzi Tulahuen strain C2C4 containing the β-galactosidase (Lac Z) gene (Buckner et al. 1996). After 48 h the medium was removed from the wells and replaced by 100 µl fresh medium with or without a serial drug dilution of eleven 3-fold dilution steps covering a range from 100 to 0.002 µg/ml. After 96 h of incubation the plates were inspected under an inverted microscope to assure growth of the controls and sterility. Then the substrate CPRG/Nonidet (50 µl) was added to all wells. A color reaction developed within 2-6 h and could be read photometrically at 540 nm. Data were analyzed with the graphic programme Softmax Pro (Molecular Devices), which calculated IC50 values by linear regression (Huber 1993) from the sigmoidal dose inhibition curves. […] Activity against L. donovani axenic amastigotes. Amastigotes of L. donovani strain MHOM/ET/67/L82 were grown in axenic culture at 37 °C in SM medium (Cunnigham et al. 1977) at pH 5.4 supplemented with 10% heat-inactivated fetal bovine serum under an atmosphere of 5% CO2 in air. One hundred microlitres of culture medium with 10^5 amastigotes from axenic culture with or without a serial drug dilution were seeded in 96-well microtitre plates. Serial drug dilutions of eleven 3-fold dilution steps covering a range from 90 to 0.002 µg/ml were prepared. After 70 h of incubation the plates were inspected under an inverted microscope to assure growth of the controls and sterile conditions. 10 µl of Alamar Blue (12.5 mg resazurin dissolved in 100 ml distilled water) (Mikus and Steverdig. 2000) were then added to each well and the plates incubated for another 2 h. Then the plates were read with a Spectramax Gemini XS microplate fluorometer (Molecular Devices Cooperation, Sunnyvale, CA, USA) using an excitation wave length of 536 nm and an emission wave length of 588 nm. Data were analyzed using the software Softmax Pro (Molecular Devices Cooperation, Sunnyvale, CA, USA). Decrease of fluorescence (= inhibition) was expressed as percentage of the fluorescence of control cultures and plotted against the drug concentrations. From the sigmoidal inhibition curves the IC50 values were calculated. • d.

[8] = test system: Trypanosoma brucei rhodesiense STIB900; experiment: Activity against Trypanosoma brucei rhodesiense STIB900 (Alamar Blue); type: cell-based; settings: Trypanosoma brucei
Method: as §5

[9] = test system: T. cruzi Tulahuen strain C2C4; experiment: Activity against T. cruzi in L-6 cells (beta-galactosidase, CPRG); type: cell-based; settings: Trypanosoma cruzi, TULAHUEN, L6
Method: as §5

cruzain (CR), sequence (P25779 123-467): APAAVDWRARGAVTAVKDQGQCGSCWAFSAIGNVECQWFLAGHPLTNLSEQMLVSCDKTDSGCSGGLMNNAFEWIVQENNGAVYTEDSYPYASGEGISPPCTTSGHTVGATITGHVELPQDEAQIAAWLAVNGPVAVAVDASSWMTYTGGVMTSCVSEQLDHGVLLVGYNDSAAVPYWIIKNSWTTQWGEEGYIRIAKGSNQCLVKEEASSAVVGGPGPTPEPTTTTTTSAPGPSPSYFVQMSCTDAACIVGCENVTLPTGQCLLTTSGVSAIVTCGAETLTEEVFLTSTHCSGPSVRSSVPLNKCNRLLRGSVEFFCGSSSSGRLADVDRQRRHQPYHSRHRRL
T2 sequence (P07711 114-333): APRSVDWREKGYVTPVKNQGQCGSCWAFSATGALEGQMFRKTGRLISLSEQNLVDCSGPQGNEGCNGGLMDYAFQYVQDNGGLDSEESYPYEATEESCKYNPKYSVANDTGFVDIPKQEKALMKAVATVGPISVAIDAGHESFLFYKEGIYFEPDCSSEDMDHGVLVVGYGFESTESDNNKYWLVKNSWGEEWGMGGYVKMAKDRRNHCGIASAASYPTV
T1 sequence (Q95PM0 entry or part of it): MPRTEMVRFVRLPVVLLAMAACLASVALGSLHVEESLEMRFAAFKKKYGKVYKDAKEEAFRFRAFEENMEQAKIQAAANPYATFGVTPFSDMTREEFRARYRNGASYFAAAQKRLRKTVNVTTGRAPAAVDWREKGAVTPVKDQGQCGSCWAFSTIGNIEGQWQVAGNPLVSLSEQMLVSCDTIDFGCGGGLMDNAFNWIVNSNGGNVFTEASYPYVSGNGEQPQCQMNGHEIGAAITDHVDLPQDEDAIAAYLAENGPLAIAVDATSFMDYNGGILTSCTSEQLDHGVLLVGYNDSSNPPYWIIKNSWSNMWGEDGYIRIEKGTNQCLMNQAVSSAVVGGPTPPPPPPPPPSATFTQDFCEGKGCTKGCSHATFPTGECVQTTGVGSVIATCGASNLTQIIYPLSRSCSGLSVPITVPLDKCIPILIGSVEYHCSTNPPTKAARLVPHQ
T4 sequence (Q8I6U4 244-484): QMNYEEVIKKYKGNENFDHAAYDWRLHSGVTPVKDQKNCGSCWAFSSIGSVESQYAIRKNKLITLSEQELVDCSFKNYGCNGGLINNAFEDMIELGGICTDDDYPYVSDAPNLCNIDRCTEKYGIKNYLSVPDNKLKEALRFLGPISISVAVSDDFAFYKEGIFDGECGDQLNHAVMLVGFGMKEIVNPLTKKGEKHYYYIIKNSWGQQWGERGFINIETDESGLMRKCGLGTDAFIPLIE

CCOC(=O)/C=C/C(=O)[C@H](C)NC(=O)[C@H](Cc1ccccc1)NC(=O)OCc1ccccc1
CR(K2nd(M-1s-1)) [1]: 139583 M⁻¹ s⁻¹ | IC50 [1]: 0.29 µM | RD(K2nd(M-1s-1)) [2]: 6481 M⁻¹ s⁻¹ | IC50 [2]: 0.59 µM | CL(K2nd(M-1s-1)) [3]: 197273 M⁻¹ s⁻¹ | IC50 [3]: 0.09 µM | CB(K2nd(M-1s-1)) [4]: 4738 M⁻¹ s⁻¹ | IC50 [4]: 0.14 µM | FP2(K2nd(M-1s-1)) [5]: 28285 M⁻¹ s⁻¹

CCOC(=O)/C=C/C(=O)[C@H](C)NC(=O)[C@H](CC(C)C)NC(=O)OCc1ccccc1
CR(K2nd(M-1s-1)) [1]: 14412 M⁻¹ s⁻¹ | IC50 [1]: 0.63 µM | RD(K2nd(M-1s-1)) [2]: 14207 M⁻¹ s⁻¹ | IC50 [2]: 0.8 µM | CL(K2nd(M-1s-1)) [3]: 9821 M⁻¹ s⁻¹ | IC50 [3]: 0.55 µM | CB(K2nd(M-1s-1)) [4]: 85470 M⁻¹ s⁻¹ | IC50 [4]: 0.07 µM | FP2(K2nd(M-1s-1)) [5]: 12013 M⁻¹ s⁻¹ | IC50 ([5]; 25 °C, pH 5.5, 25µM substrate): 1.18 µM

CCOC(=O)/C=C/C(=O)[C@H](CCc1ccccc1)NC(=O)[C@H](Cc1ccccc1)NC(=O)OCc1ccccc1 [FGA-44]
IC50 ([6]; mean of replicates, read-out: P.falc NF54 IC50 mean): 6.82 mg/L (≈ 12.6 µM) | IC50 ([6]; replicate 1, erythrocytic stages, read-out: P.falc NF54 IC50 repl1): 7.19 mg/L (≈ 13.3 µM) | IC50 ([6]; replicate 2, erythrocytic stages, read-out: P.falc NF54 IC50 repl2): 6.44 mg/L (≈ 11.9 µM) | IC50 ([7]; mean of replicates, read-out: L.don. ax am IC50 mean): 6.87 mg/L (≈ 12.7 µM) | IC50 ([7]; replicate 1, axenic amastigotes, pH 5.4, 70 h, read-out: L.don. ax am IC50 repl1): 6.87 mg/L (≈ 12.7 µM) | IC50 ([8]; 70 h, replicate 1, bloodstream forms, 70 h, read-out: T.b.rhod. IC50 repl1): 0.446 mg/L (≈ 0.822 µM) | IC50 ([8]; 70 h, replicate 2, bloodstream forms, 70 h, read-out: T.b.rhod. IC50 repl2): 0.564 mg/L (≈ 1.04 µM) | IC50 ([8]; mean of replicates, read-out: T.b.rhod. IC50 mean): 0.505 mg/L (≈ 0.931 µM) | IC50 ([9]; mean of replicates, read-out: T.cruzi. IC50 mean): 10.9 mg/L (≈ 20.1 µM) | IC50 ([9]; replicate 1, L-6 cells, 96 h, read-out: T.cruzi. IC50 repl1): 7.74 mg/L (≈ 14.3 µM) | IC50 ([9]; replicate 2, L-6 cells, 96 h, read-out: T.cruzi. IC50 repl2): 14.1 mg/L (≈ 26 µM)
